Assay: xn = mol fraction of the nth substance listed
Details: Liquid; for viscosity: 100.5 kPa; for mass density: 101 kPa

CCCCCC(=O)OCC [ethyl hexanoate] + CCO
Details	mass density, 288.15 K [kg/m3]	mass density, 298.15 K [kg/m3]	mass density, 308.15 K [kg/m3]	mass density, 318.15 K [kg/m3]	viscosity, 288.15 K [mPa·s]	viscosity, 298.15 K [mPa·s]	viscosity, 308.15 K [mPa·s]	viscosity, 318.15 K [mPa·s]
x1 = 0.05	804.18	795.44	786.59	777.58	1.241	1.031	0.866	0.732
x1 = 0.1	812.99	804.11	795.12	785.96	1.182	0.982	0.829	0.71
x1 = 0.15	820.54	811.53	802.42	793.14	1.139	0.948	0.806	0.691
x1 = 0.2	827.14	818.05	808.85	799.48	1.106	0.926	0.789	0.676
x1 = 0.25	832.89	823.72	814.44	805.01	1.082	0.909	0.777	0.667
x1 = 0.3	837.94	828.72	819.38	809.89	1.062	0.897	0.769	0.662
x1 = 0.35	842.47	833.2	823.82	814.29	1.051	0.889	0.763	0.659
x1 = 0.4	846.5	837.18	827.76	818.2	1.045	0.883	0.759	0.657
x1 = 0.45	850.15	840.82	831.37	821.8	1.039	0.88	0.758	0.657
x1 = 0.5	853.47	844.11	834.63	825.05	1.037	0.88	0.759	0.658
x1 = 0.55	856.51	847.12	837.64	828.05	1.038	0.882	0.761	0.662
x1 = 0.6	859.28	849.88	840.39	830.79	1.039	0.888	0.765	0.665
x1 = 0.65	861.84	852.43	842.94	833.34	1.045	0.892	0.767	0.668
x1 = 0.7	864.22	854.82	845.33	835.75	1.048	0.896	0.773	0.674
x1 = 0.75	866.43	857.02	847.54	837.97	1.054	0.902	0.779	0.68
x1 = 0.8	868.48	859.09	849.63	840.08	1.064	0.91	0.786	0.686
x1 = 0.85	870.41	861.04	851.59	842.07	1.073	0.919	0.794	0.694
x1 = 0.9	872.22	862.86	853.45	843.97	1.086	0.929	0.803	0.703
x1 = 0.95	873.99	864.66	855.27	845.83	1.1	0.94	0.815	0.712
x1 = 1	875.64	866.29	856.91	847.5	1.102	0.94	0.814	0.711

CCOC(=O)c1ccccc1 [ethyl benzoate] + CCO
Details	mass density, 288.15 K [kg/m3]	mass density, 298.15 K [kg/m3]	mass density, 308.15 K [kg/m3]	mass density, 318.15 K [kg/m3]	viscosity, 288.15 K [mPa·s]	viscosity, 298.15 K [mPa·s]	viscosity, 308.15 K [mPa·s]	viscosity, 318.15 K [mPa·s]
x1 = 0.05	824.59	815.81	806.92	797.88	1.342	1.108	0.926	0.778
x1 = 0.1	851.02	842.08	833.03	823.84	1.36	1.123	0.938	0.793
x1 = 0.15	874.07	865.01	855.84	846.52	1.388	1.148	0.959	0.812
x1 = 0.2	894.37	885.22	875.95	866.54	1.425	1.176	0.984	0.833
x1 = 0.25	912.35	903.11	893.77	884.29	1.465	1.208	1.012	0.857
x1 = 0.3	928.37	919.07	909.68	900.15	1.51	1.244	1.042	0.881
x1 = 0.35	942.79	933.45	924.02	914.45	1.557	1.282	1.072	0.908
x1 = 0.4	955.85	946.47	937	927.41	1.607	1.321	1.105	0.935
x1 = 0.45	967.71	958.3	948.81	939.2	1.661	1.363	1.138	0.964
x1 = 0.5	978.51	969.07	959.57	949.95	1.715	1.405	1.173	0.993
x1 = 0.55	988.43	978.97	969.46	959.84	1.773	1.449	1.209	1.024
x1 = 0.6	997.48	988.07	978.54	968.93	1.833	1.496	1.247	1.055
x1 = 0.65	1005.91	996.46	986.94	977.35	1.895	1.544	1.286	1.089
x1 = 0.7	1013.67	1004.22	994.7	985.12	1.959	1.595	1.326	1.124
x1 = 0.75	1020.94	1011.5	1002.01	992.45	2.028	1.649	1.37	1.159
x1 = 0.8	1027.63	1018.2	1008.72	999.19	2.099	1.705	1.416	1.198
x1 = 0.85	1033.99	1024.57	1015.13	1005.64	2.178	1.767	1.465	1.241
x1 = 0.9	1039.87	1030.48	1021.06	1011.62	2.267	1.836	1.521	1.288
x1 = 0.95	1045.45	1036.09	1026.72	1017.33	2.373	1.917	1.582	1.335
x1 = 1	1050.78	1041.42	1032.07	1022.73	2.444	1.971	1.624	1.368

Reference: the NIST ThermoML archive (doi:10.1021/je050389b)
